Results reported in patent US11311568B2, “Therapeutic pharmaceutical composition for cancer including miRNA” (Purmx Therapeutics, Inc., priority 2017, dated 2022).

Assays:
[1] = test system: malignant pleural mesothelioma cells EHMES-10; test: Antitumor effect in vivo, subcutaneous transplantation of EHMES-10 cells; parameters: species or system SCID mouse; conditions: SCID mice, EHMES-10 subcutaneous, 13 administrations
Procedure: Malignant pleural mesothelioma cells EHMES-10 cells were used.
1: The cells on the dish were washed twice with PBS (-).
2: The cells were detached with trypsin.
3: This was suspended in a medium, and cells were counted.
4: Centrifugation at a condition of 1000 rpm for 3 min was performed to pellet down.
5: The cells were resuspended in PBS (-) in order to obtain 2.0×10^7 cells/mL.
Six weeks-old C-B-17/Icr-scid/scid Jcl (SCID mouse) were used as mice. SCID mice were subcutaneously administered 100 μL of the prepared cell suspension, and the cells were allowed to settle.
Negative control which is the control sequence and miR-3140-3p which is the miRNA of the present invention were employed. A6K (from 3D Matrix) was employed as the nucleic acid delivery reagent. The administration of miRNA to mice was carried out with the following protocol.
1: 100 μM of the nucleic acid (miRNA) was diluted with 10% saline and sterilized water in order to obtain 71.4 μM.
2: 1% A6K solution was sonicated for 5 minutes before use.
3: The diluted nucleic acid and the 1% A6K solution were mixed at a proportion of 1:1 to give the administration nucleic acid.
4: SCID mice were subcutaneously administered (tumor site) 50 μL each of the administration nucleic acid.
1: From two days after transplantation, the nucleic acid was administered every one or two days. […]

[2] = test system: pancreatic cancer cell strain CFPAC-1; test: Screening in cancer cell strains, cell survival rate with PrestoBlue; assay type: cell-based; conditions: CFPAC-1, Day 5 after transfection with RNAiMAX, compared with miR-34a-5p
Procedure: (§1) The 349 types of aging induction miRNA (mirVana; Ambion) obtained from screening were transfected into various cancer cell strains (large intestine cancer cell strain HCT116 (p53 wildtype and p53 deletion), pancreatic cancer cell strains BxPC-3 and CFPAC-1, and tongue cancer cell strain HSC-4) with an auto dispenser Bravo (Agilent).
(§2) Transfection was carried out with the following protocol.
(§3) 1: To 70 μL of serum free medium (SFM) was added 0.35 μL of RNAiMAX (Invitrogen).
(§4) 2: The solution from 1 was added to a 96-well plate (μ-plate; ibidi) with Bravo.
(§5) 3: To 2 was added 0.7 μL of miRNA (Stock Conc. 200 nM) with Bravo, and this was mixed by pipetting.
(§6) 4: This was incubated at room temperature for 20 minutes.
(§7) 5: A cell suspension diluted to 3.5×10^4 cells/mL was dispensed at 70 μL each with Bravo.
(§8) 6: This was incubated at 37° C. under 5% CO2 condition.
(§9) Setting the day of transfection as Day 0, on Day 5 the cell survival rate was evaluated with PrestoBlue (Invitrogen). The operating protocol is shown below.
(§10) 1. The medium was exchanged to a medium comprising PrestoBlue diluted 20-folds, and this was incubated at 37° C. for 1 hour. 2. The fluorescence value (Ex/Em=560 nm/590 nm) was measured with Enspire (Perkin Elmer).
(§11) 3. The cell survival rate was determined by setting the fluorescence value obtained from the well with only the reagent as the background.

[3] = test system: pancreatic cancer cell strain BxPC-3; test: as above; assay type: cell-based; conditions: BxPC-3, Day 5 after transfection with RNAiMAX, compared with miR-34a-5p
Procedure: as §1, §2, §3, §4, §5, §6, §7, §8, §9, §10, §11

[4] = test system: large intestine cancer cell strain HCT116 (p53 deletion); test: as above; assay type: cell-based; conditions: Day 5 after transfection with RNAiMAX, compared with miR-34a-5p
Procedure: as §1, §2, §3, §4, §5, §6, §7, §8, §9, §10, §11

[5] = test system: tongue cancer cell strain HSC-4; test: as above; assay type: cell-based; conditions: HSC-4, Day 5 after transfection with RNAiMAX, compared with miR-34a-5p
Procedure: as §1, §2, §3, §4, §5, §6, §7, §8, §9, §10, §11

[6] = test system: large intestine cancer cell strain HCT116 (p53 wildtype); test: as above; assay type: cell-based; conditions: Day 5 after transfection with RNAiMAX, compared with miR-34a-5p
Procedure: as §1, §2, §3, §4, §5, §6, §7, §8, §9, §10, §11

[7] = test system: breast cancer stem cell strain (MDA-MB231-luc-D3H2LN cells); test: Annexin V apoptosis marker expression by FACS; assay type: cell-based; conditions: six days after transfection, FIG. 10 bottom
Procedure: Moreover, by the protocol below, the expression of apoptosis marker Annexin V in breast cancer cells transfected with miR-3140-3p was analyzed.
1: Transfection of miR-3140-3p was performed with a protocol similar to that described above.
2: Six days after transfection, cells were recovered together with the supernatant.
3: Samples for FACS were prepared according to the protocol of the Annexin V assay kit.
4: Cells stained by Annexin V-FITC were stained with an antibody against cancer stem cell marker CD44 (eBioScience).
5: The prepared samples were analyzed with Cell Sorter (SONY).

[8] = test system: osteosarcoma cell strain U2-OS; test: Cell growth inhibition, cell count after transfection; assay type: cell-based; conditions: final concentration 10 nM, four days after transfection, FIG. 9
Procedure: (§12) Among the above four miRNAs, miR-3140-3p which had particularly high cell growth inhibition effect was transfected in each of malignant pleural mesothelioma cell strains (MSTO-211H and EHMES-10), uterine sarcoma cell strain (MES-SA), and osteosarcoma cell strain (U2-OS), and cell proliferation was observed. […] Transfection was carried out with the following protocol.
(§13) 1: To a 35 mm dish were added 500 μL of serum free medium (SFM) and 5 μL of RNAiMAX (Invitrogen).
(§14) 2: To the solution from 1 was added 1 μL each of miR-Control or miR-3140-3p, miR-22-3p, and miR-34a-5p (stock conc. 20 μM) (final concentration 10 nM).
(§15) 3: This was incubated at room temperature for 20 minutes.
(§16) 4: 1.5 mL of a cell suspension diluted to 6.7×10^4 cells/mL was added to the 35 mm dish.
(§17) 5: This was incubated at 37° C. under 5% CO2 condition.
(§18) 6: The cells were counted four days after transfection.

[9] = test system: uterine sarcoma cell strain MES-SA; test: as above; assay type: cell-based; conditions: final concentration 10 nM, four days after transfection, FIG. 8
Procedure: as §12, §13, §14, §15, §16, §17, §18

[10] = test system: malignant pleural mesothelioma cell strain MSTO-211H; test: as above; assay type: cell-based; conditions: final concentration 10 nM, four days after transfection, FIG. 6
Procedure: as §12, §13, §14, §15, §16, §17, §18

[11] = test system: malignant pleural mesothelioma cell strain EHMES-10; test: as above; assay type: cell-based; conditions: EHMES-10, final concentration 10 nM, four days after transfection, FIG. 7
Procedure: as §12, §13, §14, §15, §16, §17, §18

miR-3140-3p: Mature-miRNA, AGCUUUUGGGAAUUCAGGUAGU (SEQ ID NO. 2) (listed as RNA, chemistry not given here; listed as Homo sapiens)
tumor weight at endpoint compared to the control group ([1]; 33 days after transplantation, FIG. 16): a similar result | expansion of the tumor (luciferin imaging) compared to the control group ([1]; miRNA with A6K at tumor site, imaging at 12, 19, 26, 33 days, FIGS. 14-15): expansion of the tumor was suppressed | suppression of cell proliferation (cell survival rate, PrestoBlue) [2]: suppress cell proliferation more significantly than miR-34-5p | suppression of cell proliferation (cell survival rate, PrestoBlue) [3]: suppress cell proliferation more significantly than miR-34-5p | suppression of cell proliferation (cell survival rate, PrestoBlue) [4]: suppress cell proliferation more significantly than miR-34-5p | suppression of cell proliferation (cell survival rate, PrestoBlue) [5]: suppress cell proliferation more significantly than miR-34-5p | suppression of cell proliferation (cell survival rate, PrestoBlue) [6]: suppress cell proliferation more significantly than miR-34-5p | apoptosis marker Annexin V positive [7]: 96.97% | cell growth inhibition effect (cell count) [8]: extremely high cell growth inhibition effect compared to prior art miR-22-3p and miR-34a-5p | cell growth inhibition effect (cell count) [9]: extremely high cell growth inhibition effect compared to prior art miR-22-3p and miR-34a-5p | cell growth inhibition effect (cell count) [10]: extremely high cell growth inhibition effect compared to prior art miR-22-3p and miR-34a-5p | cell growth inhibition effect (cell count) [11]: extremely high cell growth inhibition effect compared to prior art miR-22-3p and miR-34a-5p
